One test concerns the target Regulator of G-protein signaling 7 (Homo sapiens) (UniProt P49802). Kind of test: RGS7-Galphao binding modulators, SAR follow-up, biochemical, multiplexed bead flow cytometry, SAR compounds (AID 2296). To be noted: bead-based flow cytometry, AF488-Galphao binding to RGS7.
Sequence of Regulator of G-protein signaling 7 (Homo sapiens) (P49802 whole entry, looked up): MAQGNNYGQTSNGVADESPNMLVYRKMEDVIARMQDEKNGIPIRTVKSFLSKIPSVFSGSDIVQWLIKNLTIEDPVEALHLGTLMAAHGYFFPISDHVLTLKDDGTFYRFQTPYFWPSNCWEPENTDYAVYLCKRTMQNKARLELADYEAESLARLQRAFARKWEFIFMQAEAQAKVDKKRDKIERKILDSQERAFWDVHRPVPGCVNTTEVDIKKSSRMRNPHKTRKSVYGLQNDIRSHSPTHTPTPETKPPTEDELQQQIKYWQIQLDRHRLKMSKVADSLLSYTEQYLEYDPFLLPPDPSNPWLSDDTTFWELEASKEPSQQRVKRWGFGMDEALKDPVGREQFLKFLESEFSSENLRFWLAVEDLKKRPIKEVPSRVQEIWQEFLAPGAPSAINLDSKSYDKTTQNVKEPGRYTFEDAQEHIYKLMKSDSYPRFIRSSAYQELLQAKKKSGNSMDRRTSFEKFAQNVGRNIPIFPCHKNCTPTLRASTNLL
For the compound `NS(=O)(=O)c1ccc(N/N=C/c2ccc(O)c(O)c2O)c([N+](=O)[O-])c1`, the half-maximal effective concentration (EC50) is 141 nM.

The same test, now with this note: bead-based flow cytometry, AF488-Galphao binding to RGS7; measured here: Ki from EC50 fit.
`Cc1[nH]n(-c2ccccc2)c(=S)c1C=NCCCN=Cc1c(C)[nH]n(-c2ccccc2)c1=S` registered a Ki of 1870 nM.

`CCN(CC)S(=O)(=O)c1cccc(C(=O)N/N=C/c2ccc(O)c(O)c2O)c1` returned a Ki of 320 nM.

Regarding `O=C(Cc1csc(N2CCOCC2)n1)N/N=C/c1ccc(O)c(O)c1O`, the Ki was determined as 360 nM.

In turn, `COc1ccc(C2=CC(=O)C=CC2=O)cc1` had a Ki of 300 nM.

`CCN=c1scc(C)n1/N=C/c1ccc(O)c(O)c1O` showed a Ki of 380 nM.

`NS(=O)(=O)c1ccc(N/N=C/c2ccc(O)c(O)c2O)c([N+](=O)[O-])c1`: the Ki came out at 120 nM.

In turn, `Nc1c(C(=O)NCC2CCCO2)sc2nc3c(c(-c4ccco4)c12)CC/C3=C/c1ccco1` (stereo not drawn) displayed a Ki of 120 nM.

In turn, `CN1CCN(C2=C(Cl)C(=O)C(c3cnc(N4CCCCC4)s3)=C(Cl)C2=O)CC1` showed a Ki of 70 nM.

In turn, `CC1(C)OC(=O)C(=Cc2ccc(-c3ccc(S(N)(=O)=O)cc3)o2)C(=O)O1` yielded a Ki of 1600 nM.

`CCC(=O)NC(c1ccc(C)cc1)c1cc([N+](=O)[O-])c2cccnc2c1O` (stereo not drawn) gave a Ki of 3750 nM.

With `O=C1C(Cl)=C(N2CCCCC2)C(=O)C(Cl)=C1c1cnc(N2CCCCC2)s1`, the Ki amounted to 130 nM.

In turn, `CN=c1scc(C)n1/N=C/c1ccc(O)c(O)c1O` yielded an inhibitory constant (Ki) of 210 nM.

These data come from PubChem BioAssay AID2296 (NMMLSC, 2010).
